Molecular target: T1, Human Cav2.2 channels (Homo sapiens, UniProt Q00975)
T1 construct: expressed in transfected cells
Assay: Fluorescent assay for Cav2.2 channels using potassium depolarization (Assay Example 1)
Assay type: cell-based
Settings: pre-incubation potassium concentration not stated
From the text: Assay Example 1: Fluorescent Assay for Cav2.2 Channels Using Potassium Depolarization to Initiate Channel Opening.
Human Cav2.2 channels were stably expressed in KEK293 cells along with alpha2-delta and beta subunits of voltage-gated calcium channels. An inwardly rectifying potassium channel (Kir2.3) was also expressed in these cells to allow more precise control of the cell membrane potential by extracellular potassium concentration. At low bath potassium concentration, the membrane potential is relatively negative, and is depolarized as the bath potassium concentration is raised. In this way, the bath potassium concentration can be used to regulate the voltage-dependent conformations of the channels. Compounds are incubated with cells in the presence of low (4 mM) potassium or elevated (12, 25 or 30 mM) potassium to determine the affinity for compound block of resting (closed) channels at 4 mM potassium or affinity for block of open and inactivated channels at 12, 25 or 30 mM potassium. After the incubation period, Cav2.2 channel opening is triggered by addition of higher concentration of potassium (70 mM final concentration) to further depolarize the cell. The degree of state-dependent block can be estimated from the inhibitory potency of compounds after incubation in different potassium concentrations.
Calcium influx through Cav2.2 channels is determined using a calcium-sensitive fluorescent dye in combination with a fluorescent plate reader. Fluorescent changes were measured with either a VIPR (Aurora Instruments) or FLIPR (Molecular Devices) plate reader.
• 1. Seed cells in Poly-D-Lysine Coated 96- or 384-well plate and keep in a 37° C.-10% CO2 incubator overnight • 2. Remove media^1, wash cells with 0.2 ml (96-well plate) or 0.05 ml (384-well plate) Dulbecco's Phosphate Buffered Saline (D-PBS) with calcium & magnesium (Invitrogen; 14040) • 3. Add 0.1 ml (96-well plate) or 0.05 ml (384-well plate) of 4 μM fluo-4 (Molecular Probes; F-14202) and 0.02% Pluronic acid (Molecular Probes; P-3000) prepared in D-PBS with calcium & magnesium (Invitrogen; 14040) supplemented with 10 mM Glucose & 10 mM Hepes/NaOH; pH 7.4 • 4. Incubate in the dark at 25° C. for 60-70 min • 5. Remove dye^2, wash cells with 0.1 ml (96-well plate) or 0.06 ml (384-well plate) of 4, 12, 25, or 30 mM Potassium Pre-polarization Buffer. (PPB) • 6. Add 0.1 ml (96-well plate) or 0.03 ml (384-well plate) of 4, 12, 25, 30 mM PPB. with or without test compound • 7. Incubate in the dark at 25° C. for 30 min • 8. Read cell plate on VIPR instrument, Excitation=480 nm, Emission 535 nm • 9. With VIPR continuously reading, add 0.1 ml (96-well plate) or 0.03 ml (384-well plate) of Depolarization Buffer, which is 2× the final assay concentration, to the cell plate.

T1 sequence (Q00975 whole entry): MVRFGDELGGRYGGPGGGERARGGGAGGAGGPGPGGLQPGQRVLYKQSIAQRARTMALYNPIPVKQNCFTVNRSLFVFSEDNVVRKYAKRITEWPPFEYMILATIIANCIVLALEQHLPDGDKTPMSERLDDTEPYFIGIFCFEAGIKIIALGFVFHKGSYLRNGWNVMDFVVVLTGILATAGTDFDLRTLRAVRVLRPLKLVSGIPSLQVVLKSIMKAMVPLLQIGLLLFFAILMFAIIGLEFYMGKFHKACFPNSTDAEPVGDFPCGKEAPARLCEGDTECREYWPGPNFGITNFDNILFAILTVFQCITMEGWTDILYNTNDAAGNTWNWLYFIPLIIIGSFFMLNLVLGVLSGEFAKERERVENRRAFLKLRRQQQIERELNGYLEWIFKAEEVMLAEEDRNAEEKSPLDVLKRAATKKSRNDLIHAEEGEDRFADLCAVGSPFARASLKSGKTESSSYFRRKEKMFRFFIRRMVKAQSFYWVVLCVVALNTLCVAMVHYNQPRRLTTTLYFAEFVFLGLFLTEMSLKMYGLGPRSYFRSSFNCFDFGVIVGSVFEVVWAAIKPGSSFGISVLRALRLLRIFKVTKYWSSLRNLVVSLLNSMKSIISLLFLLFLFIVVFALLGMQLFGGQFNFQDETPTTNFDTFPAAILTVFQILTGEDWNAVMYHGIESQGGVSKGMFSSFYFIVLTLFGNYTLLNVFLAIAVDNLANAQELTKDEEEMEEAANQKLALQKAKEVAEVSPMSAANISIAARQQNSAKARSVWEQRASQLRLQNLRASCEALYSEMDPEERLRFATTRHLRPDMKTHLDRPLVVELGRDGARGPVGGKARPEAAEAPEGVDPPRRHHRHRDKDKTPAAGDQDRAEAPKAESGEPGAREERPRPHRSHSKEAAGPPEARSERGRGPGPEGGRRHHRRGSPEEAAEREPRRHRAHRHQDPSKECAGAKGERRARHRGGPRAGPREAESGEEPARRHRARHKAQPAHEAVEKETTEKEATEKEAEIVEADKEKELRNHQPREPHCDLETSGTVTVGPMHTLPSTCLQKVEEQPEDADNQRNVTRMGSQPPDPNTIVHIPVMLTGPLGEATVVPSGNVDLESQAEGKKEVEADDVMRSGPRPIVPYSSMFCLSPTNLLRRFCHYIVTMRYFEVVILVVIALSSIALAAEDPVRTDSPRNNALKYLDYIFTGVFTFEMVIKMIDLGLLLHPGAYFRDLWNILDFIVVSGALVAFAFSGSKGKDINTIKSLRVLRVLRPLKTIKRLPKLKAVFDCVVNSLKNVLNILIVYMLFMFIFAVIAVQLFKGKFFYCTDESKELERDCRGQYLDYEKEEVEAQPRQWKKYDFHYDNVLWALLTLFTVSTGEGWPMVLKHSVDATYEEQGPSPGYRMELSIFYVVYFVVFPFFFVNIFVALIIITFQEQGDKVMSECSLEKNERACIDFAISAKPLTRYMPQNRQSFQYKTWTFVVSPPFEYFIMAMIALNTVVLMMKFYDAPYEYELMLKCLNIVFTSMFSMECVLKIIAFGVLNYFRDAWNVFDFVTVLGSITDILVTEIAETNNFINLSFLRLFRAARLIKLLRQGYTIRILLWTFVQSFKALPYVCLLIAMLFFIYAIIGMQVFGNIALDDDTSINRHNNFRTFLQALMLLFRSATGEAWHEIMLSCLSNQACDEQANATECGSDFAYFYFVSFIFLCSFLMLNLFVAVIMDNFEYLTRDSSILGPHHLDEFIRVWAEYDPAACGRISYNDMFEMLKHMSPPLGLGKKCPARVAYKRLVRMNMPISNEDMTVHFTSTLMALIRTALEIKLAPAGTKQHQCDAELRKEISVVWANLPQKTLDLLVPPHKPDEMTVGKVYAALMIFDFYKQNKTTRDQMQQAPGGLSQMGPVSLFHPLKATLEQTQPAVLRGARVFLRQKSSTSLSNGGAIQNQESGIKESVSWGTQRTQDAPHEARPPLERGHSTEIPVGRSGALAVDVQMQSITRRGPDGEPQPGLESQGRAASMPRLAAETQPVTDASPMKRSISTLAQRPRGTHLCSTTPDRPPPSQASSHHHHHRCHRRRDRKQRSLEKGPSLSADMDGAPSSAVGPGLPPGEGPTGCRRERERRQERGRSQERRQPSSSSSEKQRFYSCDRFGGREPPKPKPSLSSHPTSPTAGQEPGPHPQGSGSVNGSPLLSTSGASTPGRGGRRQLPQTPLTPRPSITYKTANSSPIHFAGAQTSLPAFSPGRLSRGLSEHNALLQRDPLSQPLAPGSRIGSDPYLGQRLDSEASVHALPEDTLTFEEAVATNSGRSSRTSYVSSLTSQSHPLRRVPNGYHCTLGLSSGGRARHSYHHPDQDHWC

Structure (SMILES) | IC50 [nM]
CC(C)(C1CCN(c2ccccc2)C(=O)C1)S(=O)(=O)c1cccc(C(F)(F)F)c1 (stereo not drawn) | 360
CC(C)([C@H]1CCN(c2ccc(C(F)(F)F)cn2)C(=O)C1)S(=O)(=O)c1cccc(C(F)(F)F)c1 | 640
CC(C)(C1CCC(=O)N(Cc2ccc(Cl)cc2)C1)S(=O)(=O)c1cccc(C(F)(F)F)c1 (stereo not drawn) | 890
CC(C)([C@@H]1CCN(c2ccc(C(F)(F)F)cn2)C(=O)C1)S(=O)(=O)c1cccc(C(F)(F)F)c1 | 280
CC(C)(C1CC(=O)N(c2ccc(C(F)(F)F)cc2)C1)S(=O)(=O)c1cccc(C(F)(F)F)c1 (stereo not drawn) | 790
CC(C)(C1CCN(Cc2ccc(F)cc2)C(=O)C1)S(=O)(=O)c1cccc(C(F)(F)F)c1 (stereo not drawn) | 220

Source: US20110172236A1, “SUBSTITUTED ARYL SULFONE DERIVATIVES AS CALCIUM CHANNEL BLOCKERS” (priority 2008, published 2011)
